1 compound from ChEMBL document CHEMBL5634089, “Design, synthesis and evaluation of 2-pyrimidinylindole derivatives as anti-obesity agents by regulating lipid metabolism” (Eur J Med Chem, 2023) can be followed below.

For data set [1], the system named is 3T3-L1. Description: Anti-adipogenic activity in mouse 3T3-L1 cells assessed as lipid-lowering activity measured after 9 days by Oil Red O staining based microplate reader analysis. The settings on record: 3T3-L1, 216 h. Format: functional, cell-based.
The nature of data set [2]: Therapeutic index, ratio of IC50 for cytotoxicity against mouse 3T3-L1 cells to EC50 for anti-adipogenic in mouse 3T3-L1 cells. The settings on record: read-out: Ratio IC50/EC50. Format: toxicity, cell-based.
A short description of data set [3]: MRT (0 to t) in Sprague-Dawley rat at 2 mg/kg, iv administered for 24 hrs by LC-MS/MS analysis. The settings on record: in vivo. The data set is classed as ADME, organism-based.
The nature of data set [4]: Half life in Sprague-Dawley rat at 20 mg/kg, po administered for 24 hrs by LC-MS/MS analysis. Format: ADME, organism-based. The conditions noted are these: in vivo.
A short description of data set [5]: Tmax in Sprague-Dawley rat at 20 mg/kg, po administered for 24 hrs by LC-MS/MS analysis. The data set is classed as ADME, organism-based. The settings on record: in vivo.
A short description of data set [6]: Cmax in Sprague-Dawley rat at 20 mg/kg, po administered for 24 hrs by LC-MS/MS analysis. Format: ADME, organism-based. The conditions noted are these: in vivo.
A short description of data set [7]: AUC (0 to t) in Sprague-Dawley rat at 20 mg/kg, po administered for 24 hrs by LC-MS/MS analysis. Format: ADME, organism-based. The conditions noted are these: in vivo.
Data set [8] can be described thus: Apparent volume of distribution during terminal phase in Sprague-Dawley rat at 20 mg/kg, po administered for 24 hrs by LC-MS/MS analysis. Format: ADME, organism-based. The settings on record: in vivo, read-out: Vz/F.
The nature of data set [9]: Apparent oral clearance in Sprague-Dawley rat at 20 mg/kg, po administered for 24 hrs by LC-MS/MS analysis. The conditions noted are these: in vivo. The data set is classed as ADME, organism-based.
Data set [10] can be described thus: Oral bioavailability (0 to t) in Sprague-Dawley rat at 20 mg/kg administered for 24 hrs by LC-MS/MS analysis. The data set is classed as ADME, organism-based. The settings on record: in vivo.
A short description of data set [11]: Aqueous solubility of compound incubated for 24 hrs by HPLC analysis. Format: physicochemical. The conditions noted are these: aqueous medium.
For data set [12], the system named is Mus musculus. Kind of data set: Anti-obesity activity in high-fat and high-cholesterol diet induced C57BL/6J mouse assessed as reduction in liver damage by measuring reduction in aspartate aminotransferase level in serum at 20 mg/kg, ip administered every day for 6 weeks. The data set is classed as functional, organism-based.
In data set [13] the test system is Mus musculus. Description: Anti-obesity activity in high-fat and high-cholesterol diet induced C57BL/6J mouse assessed as reduction in liver damage by measuring reduction in cholinesterase level in serum at 20 mg/kg, ip administered every day for 6 weeks. The data set is classed as functional, organism-based.
For data set [14], the system named is 3T3-L1. Description: Anti-adipogenic activity against mouse 3T3-L1 cells assessed as decrease in PPAR gamma mRNA expression at 0.2 to 0.8 uM incubated for 3 days by RT-PCR analysis. The conditions noted are these: dose 0.2-0.8 µM, time 3.0 day. Format: functional, cell-based.
The test system of data set [15] is 3T3-L1. Kind of data set: Anti-adipogenic activity against mouse 3T3-L1 cells assessed as increase in Cpt1 alpha mRNA expression at 0.2 to 0.8 uM incubated for 3 days by RT-PCR analysis. The conditions noted are these: dose 0.2-0.8 µM, time 3.0 day. Format: functional, cell-based.
Data set [16] has as its system Mus musculus. Description: Inhibition of lipid synthesis in high-fat and high-cholesterol diet induced C57BL/6J mouse assessed as downregulation of ACLY protein expression at 20 mg/kg, ip administered for 6 weeks by Western blotting analysis. The data set is classed as functional, organism-based. On the technique in general: In western blotting, separated proteins are transferred to a membrane and probed.

Data set [17] relates to Mus musculus. Description: Inhibition of lipid synthesis in high-fat and high-cholesterol diet induced C57BL/6J mouse assessed as downregulation of FABP4 protein expression at 20 mg/kg, ip administered for 6 weeks by Western blotting analysis. Format: functional, organism-based.

The structures appear in SMILES notation. In brackets after ≈: the same amount, converted by molar mass. Activity calls are given as the source filed them. No cut-off for these calls is given here.

Regarding `CC(=O)c1c(-c2nccc(NCCN3CCCC3)n2)[nH]c2ccccc12`, the EC50 in the data set on 3T3-L1 [1] amounted to 106 nM. The selectivity ratio in [2] came out at 255. For the same compound, the MRT last at 24 h in [3] worked out at 1.6 h. Besides, in [4], the half-life was 2.9 h. Further, in data set [5], the Tmax was 2.8 h. In [6], the concentration peaked (Cmax) at 168 ng/mL. The AUC(0-t) at 24 h in [7] is 1380 ng·h/mL. In data set [8], the Vd/F stood at 65.2 L/kg. Besides, the CL/F in [9] was 255 mL/min/kg. The compound also showed a bioavailability in data set [10] of 63%. Also, the concentration in solution in [11] (solubility at 24 h) came to 161 µg/mL (≈ 461 µM). The outcome with Mus musculus [12], in the data set on Mus musculus [13], with 3T3-L1 [14] and in the data set with 3T3-L1 [15] was Active. The inhibition result in the data set on Mus musculus [16] and in the data set on Mus musculus [17] was “Active” throughout.

What is called EC50 is the concentration that produces a half-maximal response. In general, MRT last refers to the average time that molecules of a dose stay in the body. As a reminder, the half-life is how long it takes for the measured level to halve. Low values mean fast loss, high ones slow loss. The Tmax is the time at which the peak concentration occurs. By Cmax is commonly meant the peak of the concentration-time curve. One may read the AUC(0-t) as exposure summed from dosing to a finite time, without extrapolation to infinity. As usually defined, the CL/F is the apparent clearance, not corrected for the fraction that reaches the circulation. In general, bioavailability refers to the share of a dose that reaches the circulation, judged against a reference dose that is usually intravenous. A high value points to good availability. The solubility is how much of the substance goes into solution per volume.
